Results on one compound are retold here after patent US20140066438A1, “DOPAMINE RECEPTOR D2 ANTAGONIST FOR PREVENTION AND TREATMENT OF FLAVIVIRUS INFECTION” (Academia Sinica, priority 2012, published 2014).

Assay [1] concerns DENV-2. As to the kind of experiment: Cell-based antiviral assay against DENV-2 (IFA, immunoblotting of NS3, plaque-forming assay). Further details: species or system Dengue virus serotype 2 (PL046 strain). The following applies: Dengue virus, DENV2, HEK-293T, read-out: half-maximal effective concentration (EC50) against DENV-2 infection. How it is done:
(A) PCZ cytotoxicity test. HEK293T cells were treated with solvent control or the indicated concentrations of PCZ for 24 h. AlamarBlue, XTT, and LDH assays were carried out to determine cell viability, cell proliferation, and cytotoxicity, respectively. Data are mean and standard deviation (SD) of 3 independent experiments. […] Representative immunofluorescence microscopy (400× magnification) of cells immunostained for DENV-2 NS3 (green) and DAPI for nuclei (blue). […] Plaque-forming assay of viral progeny production (plaque forming unit, PFU/ml) in culture supernatants of cells in panel C (D). Data are mean and SI) of 2 independent experiments. *P<0.05.
(A) PCZ cytotoxicity test. HEK293T cells were treated with solvent control or the indicated concentrations of PCZ (5, 10, 15, 20 and 25 μM). AlamarBlue, XTT and LDH assays were carried out to determine cell viability, cell proliferation, and cytotoxicity, respectively. […] (D) Plaque-forming assay of viral progeny production (plaque forming unit, PFU/ml): Data are mean and SD of two independent experiments. **P<0.01. […] BHK-21 cells (E) and N18 cells (F) infected with DENV-2 (MOI=0.1) were treated with or without PCZ for 2 days and 1 day, respectively.
HEK293T cells were infected with DENV-2 (MOI=0.1) with or without haloperidol for 1 day.
Monolayers of cells (HEK293T, BHK-21 and N18) in 6- or 12-well plates were infected with DENV-2 at the indicated multiplicity of infection (MOI). Virus was adsorbed for 2 h with the indicated concentrations of PCZ, then cells were washed thoroughly to remove unbound viruses and incubated for an additional 24 to 48 h with or without PCZ. The antiviral effect of PCZ was evaluated by immunofluorescence assay (IFA), immunoblotting and plaque-forming assay.
Cells were fixed with 4% PFA and permeabilized with 0.5% Triton X-100 in PBS.

Assay [2] deals with DENV-2. As to the kind of experiment: Virus entry assay (confocal microscopy, plaque-forming assay of internalized virus). The assay is classed as cell-based, Dengue virus serotype 2. How it is done:
Solvent control or PCZ (15 and 20 μM) was added 15 min before the end of virus adsorption. After a washing with PBS, cells were then shifted to 37° C. for an additional 1 h incubation. Live-cell staining was performed before cell fixation to label the cell membrane with CellMask (red) and nuclei with Hoechst (blue). […] (B) Plaque-forming assay of internalized DENV-2. […] After a washing with PBS, cells were shifted to 37° C. for an additional 1 h. Cells were physically destroyed to release the internalized DENV-2 and internalized virus was quantified by plaque-forming assays.
At 15 min before the end of virus adsorption, PCZ was added to the cell cultures. Cells were gently washed once with cold PBS, then were shifted to a 37° C. CO2 incubator for an additional 1 h to allow virus entry with or without PCZ. […] Cells were washed 3 times with cold washing buffer and once with cold PBS, then were fixed with 4% PFA for 10 min on ice. […] Level of virus titers was determined by plaque-forming assay.

In assay [3] the test system is clathrin. As to the kind of experiment: Clathrin distribution during viral entry assay (confocal imaging). The assay is classed as cell-based, human. To be noted: HEK293 cells, PCZ 20 and 30 μM, compared to solvent-treated cells. How it is done: Cells were fixed with 4% PFA and permeabilized with 0.5% Triton X-100 in PBS. After a blocking with 5% skim milk in PBS, DENV protein expression was detected in cells incubated with mouse anti-DENV-2 NS3 antibody (49), then Alexa Fluor-488-conjugated anti-mouse secondary antibody (Molecular Probes) for 1 h at room temperature. The nuclei were stained with DAPI or Hoechst (Molecular Probes). Cells were examined under an inverted fluorescence microscope (Olympus 1X71). For confocal microcopy, cells were seeded on coverslips in 24-well culture plates. After virus absorption and treatment, cells were extensively washed with cold washing buffer and PBS, then fixed with cold 4% PFA. Cells were washed twice with cold 10 mM glycine solution, then PBS. For clathrin staining, cells were permeabilized with 0.5% Triton X-100 in PBS and blocked with 5% BSA in PBS. Cells were stained with mouse anti-clathrin heavy chain (X22) (Pierce, MA1-065), then anti-mouse Alexa Fluor-568-conjugated secondary antibody (Molecular Probes). The coverslip was mounted onto a slide and examined under confocal laser scanning microscope (ZEISS LSM 700).

In assay [4] the test system is DENV-2. In words: D2R dependence of PCZ inhibition of DENV-2 binding in N18, shLacZ-N18 and shD2R-N18 cells (NS3 Western blot). The assay is classed as cell-based, Dengue virus serotype 2. Here is the method: The lentivirus vector pLKO.1 carrying a short hairpin RNA (shRNA) targeting the mouse dopamine D2 receptor (5′-[…]-3′, SEQ ID NO: 1) or LacZ (5′-[…]-3′, SEQ ID NO: 2) from the Taiwan National RNAi Core Facility was cotransfected with pMD.G and pCMVΔR8.91 into HEK293T cells by use of Lipofectamine 2000 (INVITROGEN™). The lentiviruses were harvested from culture supernatants and concentrated by ultracentrifugation at 35,000 rpm in a Beckman SW41 rotor for 3.5 h at 4° C. The viral pellets were resuspended and used to transduce N18 cells. The D2R-deficient N18 cells (shD2R-N18) and LacZ-control cells (shLacZ-N18) were selected with puromycin (5 μg/ml).
A general note: In western blotting, separated proteins are transferred to a membrane and probed.

As to `CN1CCN(CCCN2c3ccccc3Sc3ccc(Cl)cc32)CC1` [PCZ, prochlorperazine], the EC50 in assay [1] was 88.4 nM. The “levels of DENV-2 internalization quantified by plaque forming assay” value in assay [2] (BHK-21 cells, MOI=5) was “significantly reduced”. Further, the “amounts of DENV-2 in the intracellular compartment (confocal microscopy)” value in assay [2] (HEK293T, PCZ 15 and 20 μM, 1 h at 37° C.) is “greatly reduced”. In assay [3], the cellular clathrin distribution entry was “showed a distinct clathrin distribution”. The “antiviral effect of PCZ given during binding (NS3)” value in assay [4] (N18 cells) was “noted”; in assay [4] (shD2R-N18 cells (D2R-deficient)), “not”; in assay [4] (shLacZ-N18 cells (control knockdown)), “noted”.
